Source: patent publication US6365610B1, “Ozonide compounds with inhibitory activity for urokinase production and angiogenesis” (Taiho Pharmaceutical Company Ltd., priority 1998, dated 2002)

Legend:
urokinase = experiment: Urokinase production inhibition test (HT-1080 culture supernatant urokinase activity); type: cell-based, Human; conditions: HT-1080 cells
Procedure: This test was conducted substantially according to the method described in Biochem. Biophys. Res. Commun., 142(1), 147-54(1987) as will be described in detail below.
Human fibrosarcoma cells HT-1080 were purchased from American Type Culture Collection (product of Rockville). HT-1080 cells were cultured at 37° C. in a 5% CO2 incubator in RPMI-1640 medium (product of Nissui Seiyaku Co., Ltd.) containing 10% (v/v) of […] bovine fetal serum (product of ATLANTA Biological). The cells were suspended in 0.2% trypsin 2 mM EDTA solution for use in the experiment.
The suspension of HT-1080 cells as adjusted to 1×10^5 cells/ml was placed onto a 96-well flat-bottomed incubation plate dividedly in 200 μl quantities (2×10^4 cells/well) and incubated at 37° C. for 4 hours. The supernatant was thereafter removed and replaced with the same amount of serum-free medium [hereinafter referred to as “serum(−)”], followed by incubation for 20 hours. Subsequently, serum(−) was replaced with 199 μl of serum-containing medium [hereinafter referred to as “serum(+)”], and 1 μl of a sample solution containing an active component of the invention and prepared by dissolving the component in dimethyl sulfoxide (DMSO) was added to serum(+) in the incubation plate, followed by further incubation at 37° C. for 24 hours. The resulting supernatant was removed under suction, serum(−) was added in 200 μl quantities, followed by incubation again for 24 hours, and the supernatant of the culture was collected.
To determine the conditions for measuring urokinase activity in the supernatant, the reaction time and the concentration of a synthetic substrate were investigated using recombinant human urokinase (product of CHROMOGENIX AB) and VLKpA (valylleucyllysyl p-nitroamide, product of Sigma Chemical CO.) serving as the […] at a constant concentration (2.8 μg/ml) of plasminogen. When the culture supernatant of HT-1080 cells was checked for urokinase activity preliminarily, the activity was about 0.02 IU/μl. An urokinase solution with activity of 0.02 IU/μl was reacted with the synthetic substrate of varying concentrations.
A 85 μl portion of the culture supernatant and 15 μl of substrate reaction mixture [427 mM Tris-HCl (pH 8.0), 27 mM EDTA (pH 8.0), 1.5 mM VLKpA, 125 μg/ml plasminogen (product of CHROMOGENIX AB] were mixed together in a 96-well incubation plate and reacted at 37° C. for 30 minutes, and the reaction mixture was checked for absorbance at 405 nm using an immunoreader. The urokinase production inhibition ratio was calculated from the following equation.
Inhibition ratio (%)=(1−T/C)×100
wherein T is the average absorbance of a group given the sample, and C is the average absorbance of a control group.

[1] = test system: fertilized egg chorioallantonic membrane (CAM); experiment: Angiogenesis inhibition test, fertilized egg chorioallantonic membrane (CAM) method; type: in vivo, hen; conditions: scored points over all eggs
Procedure: This experiment was conducted substantially according to the fertilized egg chorioallantonic membrane (abbreviated as CAM) method described in ADVANCES IN CANCER RESEARCH, vol. 43, 175-203. The fertilized hen's eggs (Plymouth Rock breed×white leghorn breed) used were purchased from Gotoh Brooder (Gifu Prefecture) and incubated in an incubator (product of Tokyo Rikagaku Kikai Co., Ltd.) at a humidity of 70% and 37° C.
The air chamber of each egg was located by illuminating the egg and the egg shell was injured with a rotary file at two locations, i.e., an upper portion of the air chamber and a side portion of the egg on day 3, taking the day when the incubation was started as day 0. About 3 ml of the albumen was aspirated through the side hole with a syringe for removal, and the air was removed from the upper portion with a dropper. With the side hole sealed with OpSite (product of Smith and Nephew Ltd.), the air chamber upper portion was injured in the form of a 1 cm square, the egg shell and the egg membrane were removed from the square area, and the opening was sealed with OpSite. The seal was removed from the opening on day 5 to form a window, which was sealed with Tegaderm (product of 3M Health Care Ltd.). A disk is made from 20 μl of 1% gelatin with drying, 20 μl of 0.5% aqueous methyl cellulose solution containing an active component of the invention was applied to the disk to form a superposed layer, and the resulting disk was dried in a clean bench. The Tegaderm seal was removed, the disk was placed at rest on the CAM, and the window was sealed again. The shell was removed from an upper portion of the egg on day 7, and 1 ml of 20% Intralipos (product of Green Cross Co., Ltd.) was injected into the egg under the CAM. The CAM was observed under a surgical microscope and photographed at a magnification of ×4 to ×8.
The effect to inhibit angiogenesis was determined substantially according to the method described in Cancer Lett., 48(2), 157-62(1989). More specifically, a vessel-free region, when found over a distance of at least 2 mm around the methyl cellulose layer, was interpreted as indicating angiogenesis inhibitory activity (+), weak inhibitory activity of less than 2 mm as indicating quasi-positive (±), and no vessel-free region within 2 mm as indicating negative (−). At least six fertilized eggs were used for testing. The angiogenesis inhibition ratio was determined by evaluating (+) as 1 point, (±) as 0.5 point and (−) as 0 point, and calculating the ratio of the points each compound scored for all the eggs used.

[2] = test system: Lewis lung cancer strain (LLC); type: in vivo
Procedure: The test animals used were 7-week-old female C57BL/6 mice (Nippon Charles River) weighing 17 to 20 g. A subcutaneous tumor (1.0×10^5 cells) of Lewis lung cancer strain (LLC) was transplanted in the mice, and a suspension of a test compound in an aqueous solution of 3% ethanol and 5% gum arabic was given on day 3 and thereafter. The test compound used was compound 6, which was intraperitoneally administered at a dose of 15 mg/kg every other day. On the other hand, 100 μl of 3% ethanol-5% gum arabic aqueous solution was intraperitoneally given to a control group. The mice were checked for body weight and the major and minor diameters of the primary tumor every other day, and an estimated tumor volume (V) was determined by calculating (minor diameter)^2×(major diameter)÷2. The tumor growth inhibition ratio (%) was calculated from the estimated tumor volume of day 24 after the transplantation using the following equation.
Tumor growth inhibition ratio (%)=(1−Tv/Cv)×100
wherein Tv is the tumor volume (mm^3) of the group given the test compound, and Cv is the tumor volume (mm^3) of the control group.
The tumor was excised from each mouse, fixed with acetone, and checked for the number of lesions metastasized to the lungs to calculate the lung metastasis inhibition ratio (%) from the following equation.
Lung metastasis inhibition ratio (%)=(1−T/C)×100
wherein T is the number of metastatic nodules in the group given the test compound, and C is the number of metastatic nodules in the control group.

[3] = 15 mg/kg intraperitoneally every other day, LLC-bearing mice

Compound | urokinase inhibition ratio (%) (urokinase; concentration 3.13 μg/ml) | angiogenesis inhibition ratio (%) ([1]; dosage 40 μg/egg) | melting point [°C] | other results
CC12OOC(c3ccccc3)(O1)c1ccccc1C2c1ccccc1 (stereo not drawn) [Compound 1, 4,5-dihydro-1,5-diphenyl-4-methyl-1,4-epoxy-1H-2,3-benzodioxepin] | 90.5 | 75 | 178 to 180 | urokinase inhibition ratio (%) (urokinase; concentration 1.56 μg/ml): 90.0%; angiogenesis inhibition ratio (%) ([1]; dosage 10 μg/egg): 67%
Cc1ccc(C23OOC(c4ccccc4)(O2)C(C)c2ccccc23)cc1 (stereo not drawn) [Compound 2, 4,5-dihydro-5-methyl-4-phenyl-1-p-tolyl-1,4-epoxy-1H-2,3-benzodioxepin] | – | – | 139 to 141 | urokinase inhibition ratio (%) (urokinase; concentration 12.5 μg/ml): 88.3%
COc1ccc(C23OOC(c4ccccc4)(O2)C(C)c2ccccc23)cc1 (stereo not drawn) [Compound 3, 4,5-dihydro-1-p-anisyl-5-methyl-4-phenyl-1,4-epoxy-1H-2,3-benzodioxepin] | 93.8 | 63 | 135 to 136 | urokinase inhibition ratio (%) (urokinase; concentration 6.25 μg/ml): 94.4%
CC(C)C1c2ccccc2C2(c3ccccc3)OOC1(c1ccccc1)O2 (stereo not drawn) [Compound 4, 4,5-dihydro-1,4-diphenyl-5-isopropyl-1,4-epoxy-1H-2,3-benzodioxepin] | – | – | 130 to 132 | –
c1ccc(C23OOC(O2)c2cccc4cccc3c24)cc1 (stereo not drawn) [Compound 6, 1-phenyl-1,4-epoxy-1H,4H-naphtho[1,8-de][1,2]dioxepin] | – | 100 | – | urokinase inhibition ratio (%) (urokinase; concentration 50.0 μg/ml): 90.1%; tumor growth inhibition ratio ([2]; 15 mg/kg intraperitoneally every other day from day 3, estimated tumor volume of day 24, subcutaneous LLC in mice): 59.2%; lung metastasis inhibition ratio ([2]; 15 mg/kg intraperitoneally every other day from day 3, number of metastatic nodules in lungs, LLC in mice): 75.8%; death in the mice [2, 3]: no death; reduction in body weight [2, 3]: little or no reduction in body weight
c1ccc(C2c3ccccc3C3OC2(c2ccccc2)ON3c2ccccc2)cc1 (stereo not drawn) [Compound 8, 1,2,4,5-tetrahydro-2,4,5-triphenyl-1,4-epoxy-3,2-benzoxazepin] | – | 56 | 155 to 156 | urokinase inhibition ratio (%) (urokinase; concentration 25.0 μg/ml): 82.2%; urokinase inhibition ratio (%) (urokinase; concentration 50.0 μg/ml): 93.4%
CC1c2ccccc2C2(c3ccccc3)OOC1O2 (stereo not drawn) [Compound 9, 4,5-dihydro-5-methyl-1-phenyl-1,4-epoxy-1H-2,3-benzodioxepin] | – | – | 127 to 128 | –
c1ccc(C2c3ccccc3C3(c4ccccc4)OOC2(c2ccccc2)O3)cc1 (stereo not drawn) [Compound 10, 4,5-dihydro-1,4,5-triphenyl-1,4-epoxy-1H-2,3-benzodioxepin] | 94.1 | – | 171 to 173 | –
c1ccc(C23Cc4ccccc4C(c4ccccc4)(OO2)O3)cc1 (stereo not drawn) [Compound 11, 4,5-dihydro-1,4-diphenyl-1,4-epoxy-1H-2,3-benzodioxepin] | 91.4 | – | 119 | –
